Experimental data published in ChEMBL document CHEMBL1857833, “Screening and optimization of specific chemical series against human African Trypanosomiasis (HAT)”.
Values after ≈ are worked out from the molar mass of the structure shown.

What was measured:
[1] = DNDI: Cytotoxicity against L929 mouse fibroblasts, CYTO-SP, 24 hour; format: toxicity, cell-based; settings: mouse, L929 mouse fibroblasts
Trypanosoma brucei = experiment: DNDI: Inhibition of Human African Trypanosomiasis, SBRI 427, in vitro; format: functional, organism-based
[2] = DNDI: Cytotoxicity against L929 mouse fibroblasts, 72 hour.; format: toxicity, cell-based; settings: mouse, L929 mouse fibroblasts
in vitro = settings: mouse, liver microsomes, t (1 / 2)
Description: DNDI: half life in mouse liver microsomes at a concentration of 1uM

[3] = mouse, microsomes, 1 µM
Description: DNDI: in vitro intrinsic clearance in mouse liver microsomes at a concentration of 1uM

[4] = Trypanosoma brucei, SBRI 427, read-out: IC50

Row | SMILES | IC50 at 24 h [1] [mg/L] | IC50 (Trypanosoma brucei; [4]) [mg/L] | IC50 at 72 h [2] [mg/L] | half-life at 1 µM (in vitro) [min] | CLint in vitro [3] [µL/min/mg] | IC50 (Trypanosoma brucei) [mg/L]
1 | CCCC(CCC)NCc1coc(-c2ccc(Cl)cc2)n1 | 38.4 (≈ 125 µM) | 2.08 (≈ 6.78 µM) | 5.72 (≈ 18.6 µM) | – | – | –
2 | C[C@H](NCc1coc(-c2ccc(Cl)cc2)n1)C1CCCCC1 | > 50 | 2.29 (≈ 7.18 µM) | < 3.13 | – | – | –
3 | Clc1ccc(-c2nc(CNc3ccccc3)co2)cc1 | > 50 | > 5 | 10.5 (≈ 36.9 µM) | – | – | –
4 | CCCCCC(C)NCc1coc(-c2cc(F)ccc2F)n1 (stereo unspecified) | 36 (≈ 117 µM) | 2.69 (≈ 8.72 µM) | 13.2 (≈ 42.7 µM) | – | – | –
5 | C[C@@H]1[C@H]2C[C@@H](C[C@H]1NCc1coc(-c3sccc3Cl)n1)C2(C)C | > 50 | > 5 | > 50 | – | – | –
6 | O/N=C(/NC1CCCCC1)c1cccnc1Oc1ccc(F)cc1 | – | 1.4 (≈ 4.25 µM) | > 10 | 2 | 389 | –
7 | CCCCCC(C)NCc1ccccc1-c1ccccc1 (stereo unspecified) | > 50 | 1.35 (≈ 4.8 µM) | 4.68 (≈ 16.6 µM) | – | – | –
8 | Clc1ccsc1-c1nc(CNC2CCCCCC2)co1 | > 50 | > 5 | 11.8 (≈ 38.1 µM) | – | – | –
9 | c1cc(-c2nc(CNC3CCCCCC3)co2)ccc1OC1CCCCC1 | – | 0.43 (≈ 1.17 µM) | 1.29 (≈ 3.5 µM) | 78 | 11 | –
10 | O/N=C(/NC1CCCCC1)c1cccnc1Oc1ccc(Cl)cc1 | – | 0.93 (≈ 2.69 µM) | > 10 | 2 | 367 | –
11 | CCCCCC(C)NCc1coc(-c2cccc(OC(F)(F)F)c2)n1 (stereo unspecified) | > 50 | 1.45 (≈ 4.07 µM) | 6.48 (≈ 18.2 µM) | – | – | –
12 | CCCCCC(C)NCc1coc(-c2ccc(F)c(F)c2)n1 (stereo unspecified) | 37 (≈ 120 µM) | 1.74 (≈ 5.64 µM) | 6.34 (≈ 20.6 µM) | – | – | –
13 | Clc1ccsc1-c1nc(CNC2[C@H]3C[C@@H]4C[C@@H](C[C@H]2C4)C3)co1 (stereo partly specified) | > 50 | > 5 | 10.6 (≈ 30.3 µM) | – | – | –
14 | CCCCCC(C)NCc1coc(-c2cccc(Oc3ccccc3)c2)n1 (stereo unspecified) | – | 1.14 (≈ 3.13 µM) | 1.76 (≈ 4.83 µM) | 63 | 14 | –
15 | CCCCCC(C)NCc1coc(-c2ccc(F)cc2F)n1 (stereo unspecified) | > 50 | 2.97 (≈ 9.63 µM) | 12.4 (≈ 40.3 µM) | – | – | –
16 | Clc1ccc(-c2nc(CN[C@]34C[C@H]5C[C@H](C[C@H](C5)C3)C4)co2)cc1 | > 50 | > 5 | 37.6 (≈ 110 µM) | – | – | –
17 | CCCCCC(C)NC(=O)c1coc(-c2ccccc2)n1 (stereo unspecified) | > 50 | > 5 | 27.2 (≈ 95 µM) | – | – | –
18 | CCCCCC(C)NCc1nc(-c2ccccc2)no1 (stereo unspecified) | 50 (≈ 183 µM) | > 5 | 30.8 (≈ 113 µM) | – | – | –
19 | CN(Cc1coc(-c2ccc(Cl)cc2)n1)C1CCCCC1 | > 50 | 2.7 (≈ 8.86 µM) | 11.4 (≈ 37.4 µM) | – | – | –
20 | CCCCCC(C)NCc1noc(-c2ccccc2)n1 (stereo unspecified) | 50 (≈ 183 µM) | > 5 | 30.7 (≈ 112 µM) | – | – | –
21 | CCCCCC(C)NCc1csc(-c2ccccc2)n1 (stereo unspecified) | 18 (≈ 62.4 µM) | 2.64 (≈ 9.15 µM) | 4.45 (≈ 15.4 µM) | – | – | –
22 | CC1(C)[C@H]2CC[C@@H](CNCc3ccc(-c4ccccc4)s3)[C@@H]1C2 | > 50 | 1.02 (≈ 3.13 µM) | 6.63 (≈ 20.4 µM) | – | – | –
23 | Clc1ccc(-c2nc(CNC3CCCC3)co2)cc1 | > 50 | 4.78 (≈ 17.3 µM) | 12.9 (≈ 46.8 µM) | – | – | –
24 | COc1ccc(/C(=N/O)Nc2cccc(-c3ccccc3)c2)cc1 | – | – | > 10 | 13 | 66 | –
25 | Clc1ccc(-c2nc(CN3CCCCC3)co2)cc1 | > 50 | > 5 | 34.4 (≈ 124 µM) | – | – | –
26 | CCCCCC(C)NCc1cc(-c2ccccc2)on1 (stereo unspecified) | 32 (≈ 117 µM) | 5 (≈ 18.4 µM) | 12.9 (≈ 47.3 µM) | – | – | –

Row | SMILES | IC50 at 24 h [1] [mg/L] | IC50 (Trypanosoma brucei; [4]) [mg/L] | IC50 at 72 h [2] [mg/L] | half-life at 1 µM (in vitro) [min] | CLint in vitro [3] [µL/min/mg] | IC50 (Trypanosoma brucei) [mg/L]
27 | CCCCCC(C)NCc1coc(-c2ccc(C(F)(F)F)cc2)n1 (stereo unspecified) | > 50 | 1.63 (≈ 4.79 µM) | 3.55 (≈ 10.4 µM) | – | – | –
28 | CCCCCC(C)NCc1cc(-c2ccccc2)n(C)n1 (stereo unspecified) | 50 (≈ 175 µM) | 4.05 (≈ 14.2 µM) | 12.8 (≈ 45 µM) | – | – | –
29 | CCCCCC(C)NCc1ccc(-c2ccccc2)s1 (stereo unspecified) | 23 (≈ 80 µM) | 1.8 (≈ 6.26 µM) | 7.16 (≈ 24.9 µM) | – | – | –
30 | CC1(C)[C@H]2CC[C@@H](CNCc3coc(-c4sccc4Cl)n3)[C@@H]1C2 | > 50 | > 5 | > 50 | – | – | –
31 | CCCCCC(C)NCc1coc(-c2ccc(OC(F)(F)F)cc2)n1 (stereo unspecified) | > 50 | 1.11 (≈ 3.11 µM) | 3.56 (≈ 9.99 µM) | – | – | –
32 | CCCCCC(C)NCc1coc(-c2cccc(F)c2F)n1 (stereo unspecified) | > 50 | 4.08 (≈ 13.2 µM) | 10.7 (≈ 34.5 µM) | – | – | –
33 | CCCCC[C@@H](C)NCc1coc(-c2ccc(Cl)cc2)n1 | > 50 | 0.92 (≈ 3 µM) | 3.18 (≈ 10.4 µM) | – | – | –
34 | COc1ccc(Oc2ncccc2/C(=N/O)NC2CCCCC2)cc1 | > 50 | 0.29 (≈ 0.849 µM) | > 10 | – | – | 0.33 (≈ 0.967 µM)
35 | CCCCc1ccc(-c2nc(CNCc3ccc(OC)cc3)co2)cc1 | – | – | 3.13 (≈ 8.93 µM) | 53 | 16 | –
36 | CCCCCC(C)NCc1coc(-c2cc(F)cc(F)c2)n1 (stereo unspecified) | 42 (≈ 136 µM) | 1.71 (≈ 5.55 µM) | 7.08 (≈ 23 µM) | – | – | –
37 | Clc1ccc(-c2nc(CNC3CCCCC3)co2)cc1 | > 50 | 1.86 (≈ 6.4 µM) | 6.85 (≈ 23.6 µM) | – | – | –
38 | CCCCCC(C)NCc1coc(-c2c(F)cccc2F)n1 (stereo unspecified) | > 50 | 4.83 (≈ 15.7 µM) | 18.7 (≈ 60.6 µM) | – | – | –
39 | CCCCCC(C)OCc1coc(-c2ccccc2)n1 (stereo unspecified) | > 50 | > 5 | 27.7 (≈ 101 µM) | – | – | –
40 | CCCCC[C@H](C)NCc1coc(-c2ccc(Cl)cc2)n1 | 37 (≈ 121 µM) | 1.76 (≈ 5.74 µM) | 7.01 (≈ 22.8 µM) | – | – | –
41 | CCN(CC)Cc1coc(-c2ccc(Cl)cc2)n1 | > 50 | > 5 | 39.5 (≈ 149 µM) | – | – | –
42 | CCCCC[C@@H](C)N(Cc1coc(-c2ccc(Cl)cc2)n1)Cc1coc(-c2ccc(Cl)cc2)n1 | > 50 | > 5 | > 50 | – | – | –
43 | CCCCCC(C)NCc1coc(-c2cc3ccccc3s2)n1 (stereo unspecified) | > 50 | 1.36 (≈ 4.14 µM) | 3.46 (≈ 10.5 µM) | – | – | –
44 | Clc1ccc(-c2nc(CNC3CC4CCC3C4)co2)cc1 (stereo unspecified) | 40.7 (≈ 134 µM) | 2.81 (≈ 9.28 µM) | 3.47 (≈ 11.5 µM) | – | – | –
45 | O=C(O)c1coc(-c2ccccc2)n1 | > 50 | > 5 | > 50 | – | – | –
46 | CC1CC(NCc2coc(-c3sccc3Cl)n2)CC(C)(C)C1 (stereo unspecified) | > 50 | > 5 | > 50 | – | – | –
47 | CCCCCC(C)NCc1cccc(-c2ccccc2)c1 (stereo unspecified) | > 50 | 0.81 (≈ 2.88 µM) | 3.39 (≈ 12 µM) | – | – | –
48 | C[C@@H](NCc1coc(-c2ccc(Cl)cc2)n1)C1CCCCC1 | > 50 | 1.74 (≈ 5.46 µM) | < 3.13 | – | – | –
49 | CCCCCC(C)NCc1coc(-c2ccc(SC(F)(F)F)cc2)n1 (stereo unspecified) | > 50 | 1.12 (≈ 3.01 µM) | 3.64 (≈ 9.77 µM) | – | – | –
50 | CCCCCC(C)NCc1coc(-c2ccccc2OC(F)(F)F)n1 (stereo unspecified) | 37 (≈ 104 µM) | 1.48 (≈ 4.15 µM) | 3.23 (≈ 9.06 µM) | – | – | –
51 | CCCCCC(C)NCc1ccc(-c2ccccc2)o1 (stereo unspecified) | 32 (≈ 118 µM) | 3.62 (≈ 13.3 µM) | 7.14 (≈ 26.3 µM) | – | – | –
52 | CCCCCC(C)NCc1coc(-c2cccs2)n1 (stereo unspecified) | > 50 | 3.83 (≈ 13.8 µM) | 13.5 (≈ 48.6 µM) | – | – | –
